Entries after “also recorded” stand apart in the source; their conditions may differ.
Legend:
[1] = test system: mouse medulloblastoma cells; assay: IC50 / viability (Cell Titer Blue) in mouse medulloblastoma tumorsphere cell line; format: cell-based; details: FIGS. 9-11
Procedure: Uptake was calculated by measuring relative fluorescence in two different primary medulloblastoma cell lines. Absorbance measurements were normalized to t=0 with drugs in the well, the drugs were washed out 30 minutes later, and absorbance was measured again. FIG. 9B) IC50 in a mouse medulloblastoma tumorsphere cell line treated with verteporfin or a verteporfin derivative compound (T10, T11, T13, T14, or T15). DMSO was used as a control.
(§1) Primary cells from spontaneous mouse medulloblastoma ([…];p53^−/− or FSMO;GFAPcre) and MED311 PDX model were isolated and cultured in serum-free stem cell medium (DMEM/F12, B27, pen/strep, bFGF9 10 nanograms per milliliter (ng/mL)), and EGF (20 ng/mL). Number of self-renewing stem cells in vitro were measured by plating single cells at a clonal density (<1 cell/μL) and counting spheres >100 μM 7 days later. To establish IC50 values, 3000 mouse medulloblastoma cells were plated in 96 wells and treated varying concentrations of verteporfin and new derivatives were synthesized, in triplicate, and viability was measured using Cell Titer Blue assay (Promega, Madison, Wis.) 3 days after drug treatment.

[2] = Solubility of verteporfin derivative compounds in water and buffer (pH = 2); format: physicochemical; details: for Buffer (pH = 2) result / Buffer (pH = 2) result, fraction dissolved: phosphate buffer pH = 2; for Water result: at the amount per volume in mg/mL
[3] = test system: Smo-M2;GFAP-cre medulloblastoma tumor slices; assay: Tumor slice culture ex vivo, tissue viability by Cell Titer Blue; format: cell-based, mouse
Procedure: Fresh tumor tissues were dissected and cut into 250 micrometer (μm) thick slices and cultured at air-media interface in serum-free medium (DMEM/F12, B27, pen/strep) for 8-12 days. Tissue viability was measured by Cell Titer Blue assay (Promega, Madison, Wis.) at 2-4 days intervals. DMSO or drugs were added after each viability reading.

YAP:TEAD = YAP:TEAD (Homo sapiens, UniProt P46937); details: Liu-Chittenden et al. 2012; cited from earlier work
Sequence of YAP:TEAD (P46937 whole entry): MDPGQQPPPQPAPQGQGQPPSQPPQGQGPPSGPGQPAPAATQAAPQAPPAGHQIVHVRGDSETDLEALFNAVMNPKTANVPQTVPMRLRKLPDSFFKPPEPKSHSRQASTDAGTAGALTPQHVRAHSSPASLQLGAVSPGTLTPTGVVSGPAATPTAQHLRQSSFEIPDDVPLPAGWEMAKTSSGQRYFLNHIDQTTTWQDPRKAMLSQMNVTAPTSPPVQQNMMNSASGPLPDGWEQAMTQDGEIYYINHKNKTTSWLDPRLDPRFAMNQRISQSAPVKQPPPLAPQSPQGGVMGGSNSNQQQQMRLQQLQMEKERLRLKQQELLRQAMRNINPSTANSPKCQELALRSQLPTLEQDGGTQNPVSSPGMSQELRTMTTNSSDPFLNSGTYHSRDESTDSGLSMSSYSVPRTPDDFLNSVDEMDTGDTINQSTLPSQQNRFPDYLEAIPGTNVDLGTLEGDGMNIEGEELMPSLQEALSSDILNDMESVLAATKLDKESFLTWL

[4] = test system: Ptch;p53 and Smo-M2;GFAP-cre medulloblastoma cells; assay: Self-renewal (sphere formation at clonal density) of SHH medulloblastoma tumorspheres; format: cell-based, mouse; details: for suppression of self-renewal: Ptch;p53 and Smo-M2;GFAP-cre cells in vitro, n=3; for self-renewal (in words): in vitro
Procedure: (§2) To test YAP function in human cells, primary cells from a SHH subgroup PDX model (MED311) were isolated and treated with VP.
as §1

[5] = test system: MED311 human patient-derived xenograft (PDX) SHH medulloblastoma cells; assay: VP treatment of primary cells from SHH subgroup PDX model; format: cell-based
Procedure: as §2, §1

SMO-M2;GFAP-cre mice = assay: Kaplan-Meier survival of SMO-M2;GFAP-cre mice, intraperitoneal injection; format: in vivo, mouse; details: IP injection, versus vehicle (DMSO), N=8 each group

C=Cc1c(C)c2cc3nc(cc4[nH]c(cc5nc(cc1[nH]2)C(C)=C5CCC(=O)NCCN(C)C)c(CCC(=O)NCCN(C)C)c4C)[C@@]1(C)C3=CC=C(C(=O)OC)[C@H]1C(=O)OC [Compound T13, N-[2-(dimethylamino)ethyl]-3-[(23 S,24R)-14-ethenyl-5-[3-[2-(dimethylamino)ethylamino]-3-oxo-propyl]-22,23-bis(methoxycarbonyl)-4,10,15,24-tetramethyl-25,26,27,28-tetraazahexacyclo[16.6.1.13,6.18,11.113,16.019,24]octacosa-1,3,5,7,9,11(27), 12,14,16,18(25), 19,21-dodecaen-9-yl]propanamide]
activity / potency compared to VP [1]: more soluble and potent than VP
solubility compared to VP [2]: more soluble

C=Cc1c(C)c2cc3nc(cc4[nH]c(cc5nc(cc1[nH]2)C(C)=C5CCC(=O)OCCOCCOCCOC)c(CCC(=O)OCCOCCOCCOC)c4C)[C@@]1(C)C3=CC=C(C(=O)OC)[C@H]1C(=O)OC [Compound T9, 2-[2-(2-methoxyethoxy)ethoxy]ethyl 3-[(23 S,24R)-14-ethenyl-5-[3-[2-[2-(2-methoxyethoxy)ethoxy]ethoxy]-3-oxo-propyl]-22,23-bis(methoxycarbonyl)-4,10,15,24-tetramethyl-25,26,27,28-tetraazahexacyclo[16.6.1.13,6.18,11.113,16.019,24]octacosa-1,3,5,7,9,11(27),12,14,16,18(25), 19,21-dodecaen-9-yl]propanoate]
activity / potency compared to VP [1]: decreased solubility and activity
solubility compared to VP [2]: decreased solubility

C=Cc1c(C)c2cc3nc(cc4[nH]c(cc5nc(cc1[nH]2)C(C)=C5CCC(=O)NCCCC[C@H](N)C(=O)O)c(CCC(=O)OC)c4C)[C@@]1(C)C3=CC=C(C(=O)OC)[C@H]1C(=O)OC [Compound T5, (2S)-2-amino-6-[3-[(23 S,24R)-14-ethenyl-5-(3-methoxy-3-oxopropyl)-22,23-bis(methoxycarbonyl)-4,10,15,24-tetramethyl-25,26,27,28-tetraazahexacyclo[16.6.1.13,6.18,11.113,16.019,24]octacosa-1,3,5,7,9,11(27),12,14,16,18(25), 19,21-dodecaen-9-yl]propanoylamino]hexanoic acid]
Buffer (pH = 2) result [2]: soluble
Water result [2]: soluble

C=Cc1c(C)c2cc3nc(cc4[nH]c(cc5nc(cc1[nH]2)C(C)=C5CCC(=O)O)c(CCC(=O)OC)c4C)[C@@]1(C)C3=CC=C(C(=O)OC)[C@H]1C(=O)OC [Verteporfin, 3-[(23 S,24R)-14-ethenyl-5-(3-methoxy-3-oxopropyl)-22,23-bis(methoxycarbonyl)-4,10,15,24-tetramethyl-25,26,27,28-tetraazahexacyclo[16.6.1.13,6.18,11.113,16.019,24]octacosa-1,3,5,7,9,11(27),12,14,16,18(25), 19,21-dodecaen-9-yl]propanoic acid]
response of tumor tissue explants grown as intact slices [3]: significant response
YAP:TEAD binding (YAP:TEAD): inhibit YAP:TEAD binding
suppression of self-renewal ([4]; 0.1 μM): ~50%
self-renewal (in words) ([4]; 100 nM): suppressed self-renewal
self-renewal (in words) ([4]; 1 μM): completely suppressed self-renewal
suppression of self-renewal [4]: 100%
solubility (in words) [2]: poor solubility
Buffer (pH = 2) result [2]: insoluble
Water result [2]: insoluble
cell morphology ([5]; 24 hours post-VP treatment, listed as VP): significant morphology change; also recorded: morphological changes consistent with apoptosis
proliferation ([5]; upon VP treatment): reduced proliferation
survival (SMO-M2;GFAP-cre mice): increase survival

C=Cc1c(C)c2cc3nc(cc4[nH]c(cc5nc(cc1[nH]2)C(C)=C5CCC(=O)NCCN(C)C)c(CCC(=O)OC)c4C)[C@@]1(C)C3=CC=C(C(=O)OC)[C@H]1C(=O)OC [Compound T11, Methyl 3-[(23 S,24R)-14-ethenyl-9-[3-[2-(dimethylamino)ethylamino]-3-oxo-propyl]-22,23-bis(methoxycarbonyl)-4,10,15,24-tetramethyl-25,26,27,28-tetraazahexacyclo[16.6.1.13,6.18,11.113,16.019,24]octacosa-1,3,5,7,9,11(27), 12,14,16,18(25), 19,21-dodecaen-5-yl]propanoate]
Buffer (pH = 2) result, fraction dissolved [2]: ~70%
Water result [2]: insoluble

C=Cc1c(C)c2cc3nc(cc4[nH]c(cc5nc(cc1[nH]2)C(C)=C5CCC(=O)N(C)CCN(C)C)c(CCC(=O)N(C)CCN(C)C)c4C)[C@@]1(C)C3=CC=C(C(=O)OC)[C@H]1C(=O)OC [Compound T15, N-[2-(dimethylamino)ethyl]-3-[(23 S,24R)-14-ethenyl-5-[3-[2-(dimethylamino)ethyl-methyl-amino]-3-oxo-propyl]-22,23-bis(methoxycarbonyl)-4,10,15,24-tetramethyl-25,26,27,28-tetraazahexacyclo[16.6.1.13,6.18,11.113,16.019,24]octacosa-1,3,5,7,9,11(27), 12,14,16,18(25),19,21-dodecaen-9-yl]-N-methyl-propanamide]
Buffer (pH = 2) result [2]: soluble
Water result [2]: soluble

C=Cc1c(C)c2cc3nc(cc4[nH]c(cc5nc(cc1[nH]2)C(C)=C5CCC(=O)NCCC(=O)N[C@@H](CC(=O)O)C(=O)O)c(CCC(=O)OC)c4C)[C@@]1(C)C3=CC=C(C(=O)OC)[C@H]1C(=O)OC [Compound T4, (2S)-2-[3-[3-[(23 S,24R)-14-ethenyl-5-(3-methoxy-3-oxopropyl)-22,23-bis(methoxycarbonyl)-4,10,15,24-tetramethyl-25,26,27,28-tetraazahexacyclo[16.6.1.13,6.18,11.113,16.019,24]octacosa-1,3,5,7,9,11(27),12,14,16,18(25), 19,21-dodecaen-9-yl]propanoylamino]propanoylamino]butanedioic acid]
Buffer (pH = 2) result, fraction dissolved [2]: ~80%
Water result [2]: insoluble

C=Cc1c(C)c2cc3nc(cc4[nH]c(cc5nc(cc1[nH]2)C(C)=C5CCC(=O)N(C)CCN(C)C)c(CCC(=O)OC)c4C)[C@@]1(C)C3=CC=C(C(=O)OC)[C@H]1C(=O)OC [Compound T14, Methyl 3-[(23S,24R)-14-ethenyl-9-[3-[2-(dimethylamino)ethyl-methyl-amino]-3-oxo-propyl]-22,23-bis(methoxycarbonyl)-4,10,15,24-tetramethyl-25,26,27,28-tetraazahexacyclo[16.6.1.13,6.18,11.113,16.019,24]octacosa-1,3,5,7,9,11(27), 12,14,16,18(25), 19,21-dodecaen-5-yl]propanoate]
Buffer (pH = 2) result [2]: soluble
Water result [2]: insoluble

— patent US11331304B2, “YAP1 inhibitors and methods” (The Jackson Laboratory, priority 2016, dated 2022)
